The results in this text go back to patent publication US20160270405A1, “Synergistic Compositions Comprising a Bacillus Subtilis Strain and a Pesticide” (BASF CORPORATION, priority 2013, published 2016).

In one test the test system is corn. Kind of test: Improvement of plant growth in corn: seed treatment, two week growth in seed germination pouches. Format: in vivo. The note with it: pyraclostrobin 1 g a.i./100 kg seed and/or FB17 1 × 10^6 CFU per seed, two weeks growth. As to the method: (§1) Pyraclostrobin was applied to corn or wheat seeds as the commercial, liquid seed treatment formulation Stamina® (200 g per litre a.i., BASF Corporation, Research Triangle Park, North Carlolina), whereas Bacillus subtilis FB17 was applied to corn seeds as a SC formulation (about 2×10^10 CFU ml^−1).
Corn or wheat seeds were treated at the BASF Seed Solutions Technology Center (SSTC) in Ames, Iowa. Pyraclostrobin and Bacillus subtilis UD1022 were applied to maize seeds as water-based slurries by using methods consistent with commercial seed treatment applications in a laboratory-scale batch treater. Briefly, 500 g of corn seeds were added to the drum of a laboratory-scale batch treater and 6 ml of prepared slurry (with appropriate amount of pyraclostrobin, Bacillus subtilis FB17, or combination thereof) was applied to the seed as the drum rotated. For 500 g of wheat seeds, 8 ml of slurry was used. Seed was rotated in the drum for 30 seconds following application of the slurry to assure uniform and complete coverage to the seed surface.
Treated seeds were placed in seed germination pouches (Mega International, St. Paul, Minn.) and 20 ml of fertilizer solution that provided 50 ppm nitrogen, 7.5 ppm phosphorus, and 37.5 ppm potassium (derived from calcium nitrate, potassium nitrate, phosphoric acid and adjusted to pH 6.5) was added to each pouch. Seed germination pouches were placed in 25° C. growth chambers with a 16 h photoperiod. Five ml of fertilizer solution was added to seed germination pouches at two day intervals to replenish water lost to evapotranspiration.
Corn or wheat plants were allowed to grow for two weeks. At the conclusion of the two week growth period, plant height and shoot and root dry weights were determined. Plant height was measured in centimeters. Shoot and root tissues were separated and dried in an oven at 68° C. for three days. Shoot and root dry weights were measured in mg using an analytical balance.
Treatments were arranged in a completely randomized design with ten replications per treatment. Shoot height, shoot dry weight and root dry weight data were expressed as difference (%) relative to the not-treated control to facilitate application of Colby's formula (Colby, 1967) to calculate expected difference (EColby).
EColby=PA+PB−PA*PB/100 • EColby expected difference, expressed in % difference from the not-treated control, when using the mixture of the active compounds A and B at the concentrations a and b • PA difference, expressed as % difference from the not-treated control, when using the active compound A at the concentration a • PB difference, expressed in % difference from the not-treated control, when using the active compound B at the concentration b.

A further test deals with wheat. Kind of test: Improvement of plant growth in wheat: seed treatment, two week growth in seed germination pouches. Format: in vivo. The note with it: pyraclostrobin 1 g a.i./100 kg seed and/or FB17 1 × 10^6 CFU per seed, two weeks growth. As to the method: as §1
Corn or wheat seeds were treated at the BASF Seed Solutions Technology Center (SSTC) in Ames, Iowa. Pyraclostrobin and Bacillus subtilis UD1022 were applied to maize seeds as water-based slurries by using methods consistent with commercial seed treatment applications in a laboratory-scale batch treater. […]
Corn or wheat plants were allowed to grow for two weeks. At the conclusion of the two week growth period, plant height and shoot and root dry weights were determined. Plant height was measured in centimeters. […] Shoot and root dry weights were measured in mg using an analytical balance.
Treatments were arranged in a completely randomized design with ten replications per treatment. Shoot height, shoot dry weight and root dry weight data were expressed as difference (%) relative to the not-treated control to facilitate application of Colby's formula (Colby, 1967) to calculate expected difference (EColby). […]

Turning to `COC(=O)N(OC)c1ccccc1COc1ccn(-c2ccc(Cl)cc2)n1` [Pyraclostrobin, pyraclostrobin], in the test with corn, the “Difference (shoot dry weight) relative to not-treated control” value stood at 1.1% and the “Difference (shoot height) relative to not-treated control” value was 3.5%. Moreover, in the test on corn (dried at 68° C. for three days), the Shoot dry weight came to 85.0 mg. Moreover, the Shoot height in the test with corn (mean of 10 measurements) is given as 29.7 cm. Also, the “Difference (root dry weight) relative to not-treated control” value with wheat is on record as 17.4%. In addition, the Root dry weight in the test on wheat (dried at 68° C. for three days) worked out at 10.1 mg.
